Source: patent US7223755B2, “Hydroxymorpholinone derivative and medicinal use thereof” (Senju Pharmaceutical Co., Ltd., priority 2002, dated 2007)

Key:
[1] = system: T1, μ-calpain (derived from human erythrocyte); assay: μ-calpain inhibitory activity (casein substrate, Coomassie brilliant blue); format: biochemical; settings: 0.5 mg/mL casein, 30° C. for 60 min; read-out: 50% enzyme inhibitory concentration [IC50 (μM)] μ-calpain
T1 construct: μ-calpain (derived from human erythrocyte, manufactured by Cosmo Bio Co., Ltd.); purchased Cosmo Bio Co., Ltd; host or cells: human erythrocyte (natural source)
Experimental: The μ-calpain and m-calpain inhibitory activities were determined according to the method described in a reference [Anal. Biochem. vol. 208, 387-392 (1993)]. To be specific, a reaction mixture (200 μL) containing 0.5 mg/mL casein, 50 mM Tris-HCl buffer (pH 7.4), 20 mM dithiothreitol and 0.03 enzyme unit of μ-calpain (derived from human erythrocyte, manufactured by Cosmo Bio Co., Ltd.) or m-calpain (derived from pig kidney, manufactured by Cosmo Bio Co., Ltd.), dimethyl sulfoxide solution (2.5 μL) containing various concentrations of a test drug and 20 mM aqueous calcium chloride solution (50 μL) were added to a 96 well plate. After reaction at 30° C. for 60 min, the reaction mixture (100 μL) was transferred to a different 96 well plate, and purified water (50 μL) and 50% Coomassie brilliant blue solution (100 μL) were added. The plate was left standing at room temperature for 15 min and absorbance at 595 nm was measured. Using a value, measured after treating in the same manner without a test drug, as a control and a value, obtained by adding 1 mM EDTA instead of 20 mM aqueous calcium chloride solution, as a blank value, an inhibitory rate was calculated from the following formula and the amount (IC50) necessary for 50% inhibition was determined. Inhibitory rate (%)={1−(measured value−blank value)/(control value−blank value)}×100 Test Results 1

Compound | IC50 [1] [µM] | melting point [°C]
CC(C)C[C@@H]1OC(O)[C@H](Cc2ccccc2)NC1=O (stereo partly drawn) [Compound 1, (2S,5S)-5-benzyl-6-hydroxy-2-(2-methylpropyl)-3-morpholinone] | 0.7 | –
CC(C)C[C@@H]1OC(O)[C@H](CCc2ccccc2)NC1=O (stereo partly drawn) [Compound 2, (2S,5S)-6-hydroxy-2-(2-methylpropyl)-5-(2-phenylethyl)-3-morpholinone] | 0.51 | 94.1 to 95.8
CC(C)C[C@@H]1OC(O)[C@H](Cc2ccc3ccccc3c2)NC1=O (stereo partly drawn) [Compound 3, (2S,5S)-6-hydroxy-2-(2-methylpropyl)-5-(2-naphthylmethyl)-3-morpholinone] | 0.49 | 86.5 to 88.5
CC(C)C[C@@H]1OC(O)[C@@H](Cc2ccccc2)NC1=O (stereo partly drawn) [Compound 4, (2S,5R)-5-benzyl-6-hydroxy-2-(2-methylpropyl)-3-morpholinone] | 5.9 | 130.9 to 131.8
CC(C)[C@@H]1OC(O)[C@H](Cc2ccccc2)NC1=O (stereo partly drawn) [Compound 5, (2S,5S)-5-benzyl-6-hydroxy-2-(1-methylethyl)-3-morpholinone] | 2.3 | –
CC(C)[C@@H]1OC(O)[C@H](CCc2ccccc2)NC1=O (stereo partly drawn) [Compound 6, (2S,5S)-6-hydroxy-2-(1-methylethyl)-5-(2-phenylethyl)-3-morpholinone] | 3.5 | –
O=C1N[C@@H](Cc2ccccc2)C(O)O[C@H]1Cc1ccccc1 (stereo partly drawn) [Compound 7, (2S,5S)-2,5-dibenzyl-6-hydroxy-3-morpholinone] | 17 | 165.5 to 166
CC(C)C[C@@H]1OC(O)[C@H](Cc2ccc(O)cc2)NC1=O (stereo partly drawn) [Compound 8, (2S,5S)-6-hydroxy-5-((4-hydroxyphenyl)methyl)-2-(2-methylpropyl)-3-morpholinone] | 2.5 | –
COc1ccc(C[C@@H]2NC(=O)[C@H](CC(C)C)OC2O)cc1 (stereo partly drawn) [Compound 9, (2S,5S)-6-hydroxy-5-((4-methoxyphenyl)methyl)-2-(2-methylpropyl)-3-morpholinone] | 0.68 | –
CCCCOc1ccc(C[C@@H]2NC(=O)[C@H](CC(C)C)OC2O)cc1 (stereo partly drawn) [Compound 10, (2S,5S)-5-((4-butoxyphenyl)methyl)-6-hydroxy-2-(2-methylpropyl)-3-morpholinone] | 0.52 | –
CC(C)C[C@@H]1OC(O)[C@H](Cc2ccc(OCC3CCCCC3)cc2)NC1=O (stereo partly drawn) [Compound 11, (2S,5S)-5-((4-(cyclohexylmethoxy)phenyl)methyl)-6-hydroxy-2-(2-methylpropyl)-3-morpholinone] | 0.45 | –
CC(C)C[C@@H]1OC(O)[C@H](Cc2ccccc2F)NC1=O (stereo partly drawn) [Compound 12, (2S,5S)-5-((2-fluorophenyl)methyl)-6-hydroxy-2-(2-methylpropyl)-3-morpholinone] | 2.1 | 83.9 to 87.9
CC(C)C[C@@H]1OC(O)[C@H](Cc2ccccc2Cl)NC1=O (stereo partly drawn) [Compound 13, (2S,5S)-5-((2-chlorophenyl)methyl)-6-hydroxy-2-(2-methylpropyl)-3-morpholinone] | 0.93 | –
CC(C)C[C@@H]1OC(O)[C@H](COCc2ccccc2)NC1=O (stereo partly drawn) [Compound 14, (2S,5S)-5-benzyloxymethyl-6-hydroxy-2-(2-methylpropyl)-3-morpholinone] | 0.82 | –
CC(C)C[C@@H]1OC(O)[C@H](CCCCNC(=O)c2ccccc2)NC1=O (stereo partly drawn) [Compound 16, (2S,5S)-5-(4-(benzoylamino)butyl)-6-hydroxy-2-(2-methylpropyl)-3-morpholinone] | 1.1 | 128.4 to 129
(2S,5S)-5-((4-biphenyl)methyl)-6-hydroxy-2-(2-methylpropyl)-3-morpholinone [Compound 15] | 0.25 | –
